According to US4385055A, “2-Acetyl-and 2-propionylpyridine thiosemicarbazones as antimalarials” (The United States of America as represented by the …, priority 1981, dated 1983):
In brackets after ≈: the same amount, converted by molar mass. Like-named read-outs stand apart in the source and are kept apart here.

Key:
Format in all cases: cell-based
[1] = system: Mycobacterium smegmatis; test: MIC against Mycobacterium smegmatis strains (Test 4); conditions: Mycolicibacterium smegmatis, read-out: Minimum Inhibitory Concentration
Description: Compounds were tested against four strains of Mycobacterium smegmatis. The test procedure used was as mentioned by N. E. Morrison [Int. J. of Leprosy 39:34-43 (1971)]. The strain numbers refer to Mycobacterium smegmatis ATCC 607, a DDS-resistant daughter strain, a Rifampin-resistant daughter strain, and a Clofazimine-resistant daughter strain, respectively.

[2] = system: Neisseria meningitidis; test: Macro broth dilution MIC, Neisseria meningitidis isolates (Test 2); conditions: for MIC: Neisseria meningitidis, 24 h, read-out: Minimum Inhibitory Concentration
Description: Compounds were tested against five isolates of Neisseria meningitidis. The bacterial isolates were provided by the Department of Bacterial Diseases of the Walter Reed Army Institute of Research. The test procedure used was the macro broth dilution method in duplicate outlined by J. C. Sherris on pages 414-415 (loc. cit.). The test compounds and controls were prepared as in Test 1 above. Ampicillin and penicillin standards were initially diluted as described by J. C. Sherris on pages 411-412 (loc. cit.) followed by dilution with Mueller-Hinton broth. The tubes were incubated at 37° C. under 5-10% carbon dioxide.

[3] = system: Group D Enterococcus; test: Macro broth dilution MIC, Group D Enterococcus isolates (Test 1); conditions: 24 h, read after 24 hours, read-out: Minimum Inhibitory Concentration
Description: Compounds were tested against five isolates of Staphylococcus aureus and five isolates of Group D Enterococcus. The bacteria used were isolated from patients at the Walter Reed Army Medical Center, Washington, D.C. The test procedure used was the macro broth dilution method in duplicate as outlined by J. C. Sherris on pages 414-415 in "Manual of Clinical Microbiology," 2nd ed., E. Lennette, E. H. Spaulding, and J. P. Truant, Ed. (American Society for Microbiology, Washington, D.C., 1974). Each compound was dissolved in DMSO (12.8 mg/mL) and then diluted with Mueller-Hinton broth to obtain the desired dilutions. Tubes containing the highest quantities of DMSO with no compound present were run as controls.

[4] = system: Neisseria gonorrhoeae; test: Agar dilution MIC, Neisseria gonorrhoeae isolates (Test 3); conditions: 24 h
Description: Compounds were tested against six Neisseria gonorrhoeae isolates. The bacteria used were provided by the Department of Bacterial Diseases of the Walter Reed Army Institute of Research. The test procedure used was the agar dilution method in duplicate as outlined by J. C. Sherris on pages 411-412 (loc. cit.). GC Medium (Difco) with a 2% defined supplement added as described by D. S. Kellogg et al. [J. Bact. 85:1274-1279 (1963)] was used as the media. The compounds were dissolved in DMSO (1.0 mg/mL), diluted with GC broth (GC Medium without agar) to the appropriate concentration, and added to the GC Medium at 55°-56° C. The latter was then poured and allowed to solidify. A penicillin standard was also prepared with initial dilutions as described by J. C. Sherris followed by dilutions with GC broth and addition to the GC Medium at 55°-56° C. as above. The inoculum was 1:200 GC broth dilution of a suspension of colony isolates after the suspension was adjusted visually to the turbidity standard described by J. M. Matsen and A. L. Barr on page 422 in "Manual of Clinical Microbiology," 2nd ed., E. Lennette, E. H. Spaulding, and J. P. Truant, Ed. (American Society for Microbiology, Washington, D.C., 1974). The plates were inoculated with a replicator and incubated at 37° C. under 5-10% carbon dioxide.

[5] = system: Mycobacterium intracellulare; test: Broth dilution MIC, Mycobacterium intracellulare strains (Test 6); conditions: read-out: Minimum Inhibitory Concentration
[6] = ATCC607, Mycobacterium smegmatis strain I (ATCC 607)
[7] = Mycobacterium smegmatis strain II (DDS-resistant daughter strain)
[8] = Mycobacterium smegmatis strain III (Rifampin-resistant daughter strain)
[9] = Mycobacterium smegmatis strain IV (Clofazimine-resistant daughter strain)
[10] = Neisseria meningitidis isolate 7957, read after 24 hours
[11] = Neisseria meningitidis isolate 7990, read after 24 hours
[12] = Neisseria meningitidis isolate 8005, read after 24 hours
[13] = Neisseria meningitidis isolate 8006, read after 24 hours
[14] = Neisseria meningitidis isolate 8011, read after 24 hours
[15] = Neisseria gonorrhoeae isolate 135, read after 24 hours, read-out: Minimum Inhibitory Concentration
[16] = Neisseria gonorrhoeae isolate 161, read after 24 hours, read-out: Minimum Inhibitory Concentration
[17] = Neisseria gonorrhoeae isolate 278, read after 24 hours, read-out: Minimum Inhibitory Concentration
[18] = Neisseria gonorrhoeae isolate 455, read after 24 hours, read-out: Minimum Inhibitory Concentration
[19] = Neisseria gonorrhoeae isolate 456, read after 24 hours, read-out: Minimum Inhibitory Concentration
[20] = Neisseria gonorrhoeae isolate 602, read after 24 hours, read-out: Minimum Inhibitory Concentration

Structure (SMILES)	MIC [1, 6]	MIC [1, 7]	MIC [1, 8]	MIC [1, 9]	MIC [4, 15]	MIC [4, 16]	MIC [4, 17]	MIC [4, 18]	MIC [4, 19]	MIC [4, 20]	further results
C=CCNC(=S)NN=C(C)c1ccccn1 [A, 2-Acetylpyridine 4-allyl-3-thiosemicarbazone]	< 1 µg/mL	< 1 µg/mL	< 1 µg/mL	< 1 µg/mL	–	–	–	–	–	–	–
CC1(C)S[C@@H]2[C@H](NC(=O)[C@H](N)c3ccccc3)C(=O)N2[C@H]1C(=O)O [Ampicillin, reference compound]	–	–	–	–	–	–	–	–	–	–	MIC [2, 10]: 0.008 µg/mL (≈ 0.0229 µM); MIC [2, 11]: 0.008 µg/mL (≈ 0.0229 µM); MIC [2, 12]: 0.008 µg/mL (≈ 0.0229 µM); MIC [2, 13]: 0.016 µg/mL (≈ 0.0458 µM); MIC [2, 14]: 0.016 µg/mL (≈ 0.0458 µM)
CC(C)/N=c1\cc2n(-c3ccc(Cl)cc3)c3ccccc3nc-2cc1Nc1ccc(Cl)cc1 [Clofazimine, reference compound]	1.5 µg/mL (≈ 3.17 µM)	–	–	20 µg/mL (≈ 42.2 µM)	–	–	–	–	–	–	–
Nc1ccc(S(=O)(=O)c2ccc(N)cc2)cc1 [DDS, reference compound]	2 µg/mL (≈ 8.05 µM)	400 µg/mL (≈ 1610 µM)	–	–	–	–	–	–	–	–	–
CC(=NNC(=S)N1CCC1)c1ccccn1 [FF, Azetidine-1-thiocarboxylic acid 2-[1-(2-pyridyl)ethylidene]hydrazide]	2 µg/mL (≈ 8.54 µM)	2 µg/mL (≈ 8.54 µM)	< 1 µg/mL	< 1 µg/mL	–	–	–	–	–	–	–
CC(=NNC(=S)NC(C)(C)CC(C)(C)C)c1ccccn1 [G, 2-Acetylpyridine 4-(1,1,3,3-tetramethylbutyl)-3-thiosemicarbazone]	–	–	–	–	–	–	–	–	–	–	MIC ([3]; Group D Enterococcus isolate I): 8 µg/mL (≈ 26.1 µM); MIC ([3]; Group D Enterococcus isolate II): 4 µg/mL (≈ 13.1 µM); MIC ([3]; Group D Enterococcus isolate III): 4 µg/mL (≈ 13.1 µM); MIC ([3]; Group D Enterococcus isolate IV): 4 µg/mL (≈ 13.1 µM); MIC ([3]; Group D Enterococcus isolate V): 4 µg/mL (≈ 13.1 µM)
CC(=NNC(=S)N1CCCCC1)c1ccccn1 [GG, Piperidine-1-thiocarboxylic acid 2-[1-(2-pyridyl)ethylidene]hydrazide]	–	–	–	–	0.008 µg/mL (≈ 0.0305 µM)	0.004 µg/mL (≈ 0.0152 µM)	0.008 µg/mL (≈ 0.0305 µM)	0.008 µg/mL (≈ 0.0305 µM)	0.008 µg/mL (≈ 0.0305 µM)	0.008 µg/mL (≈ 0.0305 µM)	–
CC(=NNC(=S)N1CCCC1)c1ccccn1 [HH, 1-Azacyclopentane-1-thiocarboxylic acid 2-[1-(2-pyridyl)ethylidene]hydrazide]	2 µg/mL (≈ 8.05 µM)	3 µg/mL (≈ 12.1 µM)	2 µg/mL (≈ 8.05 µM)	4 µg/mL (≈ 16.1 µM)	0.008 µg/mL (≈ 0.0322 µM)	0.004 µg/mL (≈ 0.0161 µM)	0.008 µg/mL (≈ 0.0322 µM)	0.008 µg/mL (≈ 0.0322 µM)	0.008 µg/mL (≈ 0.0322 µM)	0.008 µg/mL (≈ 0.0322 µM)	–
CCC(=NNC(=S)N(C)C)c1ccccn1 [JJ, 2-Propionylpyridine 4,4-dimethyl-3-thiosemicarbazone]	–	–	–	–	0.016 µg/mL (≈ 0.0677 µM)	0.004 µg/mL (≈ 0.0169 µM)	0.016 µg/mL (≈ 0.0677 µM)	0.008 µg/mL (≈ 0.0338 µM)	0.008 µg/mL (≈ 0.0338 µM)	0.008 µg/mL (≈ 0.0338 µM)	–
CC(=NNC(=S)N1CCN(c2ccccc2)CC1)c1ccccn1 [K, 1,4-Diaza-4-phenylcyclohexane-1-thiocarboxylic acid 2-[1-(2-pyridyl)ethylidene]hydrazide]	–	–	–	–	0.031 µg/mL (≈ 0.0913 µM)	< 0.008 µg/mL	0.031 µg/mL (≈ 0.0913 µM)	0.031 µg/mL (≈ 0.0913 µM)	0.016 µg/mL (≈ 0.0471 µM)	0.031 µg/mL (≈ 0.0913 µM)	MIC [2, 10]: 0.062 µg/mL (≈ 0.183 µM); MIC [2, 11]: 0.062 µg/mL (≈ 0.183 µM); MIC [2, 12]: 1 µg/mL (≈ 2.95 µM); MIC [2, 13]: 0.062 µg/mL (≈ 0.183 µM); MIC [2, 14]: 0.125 µg/mL (≈ 0.368 µM)
CC1(C)S[C@@H]2[C@H](NC(=O)Cc3ccccc3)C(=O)N2[C@H]1C(=O)O [Penicillin, reference compound]	–	–	–	–	–	–	–	–	–	–	Minimum Inhibitory Concentration [2, 11]: 0.031 µg/mL; Minimum Inhibitory Concentration [2, 13]: 0.031 µg/mL; Minimum Inhibitory Concentration [2, 14]: 0.031 µg/mL; MIC [2]: 0.031 µg/mL (≈ 0.0927 µM); MIC ([4]; read-out: Minimum Inhibitory Concentration, Neisseria gonorrhoeae isolate 135, read after 24 hours): 0.25 µg/mL (≈ 0.748 µM); MIC ([4]; read-out: Minimum Inhibitory Concentration, Neisseria gonorrhoeae isolate 161, read after 24 hours): 0.125 µg/mL (≈ 0.374 µM); MIC ([4]; read-out: Minimum Inhibitory Concentration, Neisseria gonorrhoeae isolate 278, read after 24 hours): < 0.062 µg/mL; MIC ([4]; read-out: Minimum Inhibitory Concentration, Neisseria gonorrhoeae isolate 455, read after 24 hours): 0.125 µg/mL (≈ 0.374 µM); MIC ([4]; read-out: Minimum Inhibitory Concentration, Neisseria gonorrhoeae isolate 456, read after 24 hours): > 16 µg/mL; MIC ([4]; read-out: Minimum Inhibitory Concentration, Neisseria gonorrhoeae isolate 602, read after 24 hours): > 16 µg/mL
CC(=NNC(=S)N(C)C)c1ccccn1 [R, 2-Acetylpyridine 4,4-dimethyl-3-thiosemicarbazone]	2 µg/mL (≈ 9 µM)	3 µg/mL (≈ 13.5 µM)	2 µg/mL (≈ 9 µM)	2 µg/mL (≈ 9 µM)	0.004 µg/mL (≈ 0.018 µM)	0.004 µg/mL (≈ 0.018 µM)	0.008 µg/mL (≈ 0.036 µM)	0.008 µg/mL (≈ 0.036 µM)	0.008 µg/mL (≈ 0.036 µM)	0.008 µg/mL (≈ 0.036 µM)	MIC [2, 10]: 0.062 µg/mL (≈ 0.279 µM); MIC [2, 11]: 0.125 µg/mL (≈ 0.562 µM); MIC [2, 12]: 0.062 µg/mL (≈ 0.279 µM); MIC [2, 13]: 0.062 µg/mL (≈ 0.279 µM); MIC [2, 14]: 0.125 µg/mL (≈ 0.562 µM)
CO[C@H]1/C=C/O[C@@]2(C)Oc3c(C)c(O)c4c(O)c(c(/C=N/N5CCN(C)CC5)c(O)c4c3C2=O)NC(=O)/C(C)=C\C=C\[C@H](C)[C@H](O)[C@@H](C)[C@@H](O)[C@@H](C)[C@H](OC(C)=O)[C@@H]1C [Rifampin, reference compound]	1 µg/mL (≈ 1.22 µM)	–	250 µg/mL (≈ 304 µM)	–	–	–	–	–	–	–	–
CC(=NNC(=S)N1CCN(c2ccccn2)CC1)c1ccccn1.Cl.Cl [W, 1,4-Diaza-4-(2-pyridyl)cyclohexane-1-thiocarboxylic acid 2-[1-(2-pyridyl)-ethylidene]hydrazide dihydrochloride]	6 µg/mL	10 µg/mL	5 µg/mL	6 µg/mL	–	–	–	–	–	–	–
CC(=NNC(=S)N1CCCCCCCCCCCC1)c1ccccn1 [Z, 1-Azacyclotridecane-1-thiocarboxylic acid 2-[1-(2-pyridyl)ethylidene]hydrazide]	–	–	–	–	–	–	–	–	–	–	MIC ([5]; Mycobacterium intracellulare strain I): 10 µg/mL (≈ 27.7 µM); MIC ([5]; Mycobacterium intracellulare strain II): 1 µg/mL (≈ 2.77 µM); MIC ([5]; Mycobacterium intracellulare strain III): 1 µg/mL (≈ 2.77 µM); MIC ([5]; Mycobacterium intracellulare strain IV): 10 µg/mL (≈ 27.7 µM); MIC ([5]; Mycobacterium intracellulare strain V): 10 µg/mL (≈ 27.7 µM); MIC ([5]; Mycobacterium intracellulare strain VI): 10 µg/mL (≈ 27.7 µM)
